Results published in article PMC9000499, “New Triazolyl N^N Bidentate Rh(III), Ir(III), Ru(II) and Os(II) Complexes: Synthesis and Characterization, Probing Possible Relations between Cytotoxicity with Transfer Hydrogenation Efficacy and Interaction with Model Biomolecules” (Molecules, 2022).
“And” between values parts separate entries of the source, which are not always exact repeats. Equal values may be shown once. Read-outs that look alike come from different tables or passages of the source.

Tests used:
[1] = tested on: cervical cancer cells (Hela); assay: MTS in vitro cytotoxicity assay, Hela; assay type: cell-based; details: 96 h exposure, mean ± SD n = 6
From the text: (§1) The absorbance is directly proportional to cell viability.

lung cancer cells (A549) = assay: MTS in vitro cytotoxicity assay, A549; assay type: cell-based; details: mean ± SD n = 6
From the text: as §1

[2] = MTS in vitro cytotoxicity assay, HEK293; assay type: cell-based; details: MTS assay, 96 h exposure, mean ± SD n = 6
From the text: as §1

Lymphoma cells (MT4) = assay: MTS in vitro cytotoxicity assay, MT4; assay type: cell-based; details: 96 h exposure, mean ± SD n = 6
From the text: as §1

[3] = tested on: normal kidney cells (BHK21); assay: MTS in vitro cytotoxicity assay, BHK21; assay type: cell-based; details: mean ± SD n = 6
From the text: as §1

[4] = not given; remark: listed apart in the source
[5] = tested on: cancer cells (HeLa, HEK293, A549, MT4); details: summary over the selected cancer cell lines, MTS assay; for EC50: read-out: EC50 against the cancer cells
Description: (§2) An MTS (3-(4,5-dimethylthiazol-2-yl)-5-(3-carboxymethoxy-phenyl)-2-(4-sulfophenyl)-2H-tetrazolium) in vitro cytotoxicity assay was conducted to determine change in cell viability using a colour change. The MTS compound (yellow) is metabolised by viable cells to form a dark purple coloured compound, visible through UV-Vis spectroscopy at 490 nm. The absorbance is directly proportional to cell viability. Samples were tested across three plates in duplicate (n = 6), and the average value was reported.
(§3) HeLa (cervical cancer cells), Hek293 (kidney cancer cells), BHK21 (normal kidney cells), MT4 (lymphoma cells) and A549 (lung cancer cells) were grown using standard tissue culture techniques. The cells (1 × 10^5 cells/mL) were incubated in 96-well plates at 37 °C overnight, with the subsequent addition of the supplied compounds, at concentrations (100 µg/mL, 50.0 µg/mL, 25.0 µg/mL, 12.5 µg/mL, 6.25 µg/mL, 3.125 µg/mL and 0 µg/mL). The cells were left to incubate for four days, after which MTS (5 µL) was added to the cells. The absorbance values were measured at 490 nm after 1 h, 2 h and 4 h incubation periods, averaged, and the viability curves were drawn up.

[6] = qualitative, aqueous model system / PBS
[7] = tested on: all the tested cell lines (Hela, HEK293, BHK21, MT4, A549); details: summary over all tested cell lines, MTS assay
Description: as §2, §3

[8] = tested on: kidney cancer cells (HEK293); assay: MTS in vitro cytotoxicity assay, HEK293; assay type: cell-based; details: EC50 against BHK21 divided by EC50 against HEK293
From the text: as §1

[9] = base: NaHCO3 1.0 equiv., PBS pH 7.4, 310 K, 24 h
[10] = base: None, 2.0 equiv. halide abstractor AgBF4 added, PBS pH 7.4, 310 K, 24 h
[11] = base: None, 1 mol% catalyst, 2.0 equiv. sodium formate, PBS pH 7.4, 310 K, 24 h
[12] = percentage of lactate formed, base: NaHCO3 1.0 equiv., PBS pH 7.4, 310 K, 24 h
[13] = percentage of lactate formed, base: None, 2.0 equiv. AgBF4 added, PBS pH 7.4, 310 K, 24 h
[14] = percentage of lactate formed, base: None, PBS pH 7.4, 310 K, 24 h
[15] = Homo sapiens, A549, 96 h exposure
[16] = Mesocricetus auratus, BHK-21, 96 h exposure

CC(=O)OC[C@H]1O[C@@H]([S-])[C@H](OC(C)=O)[C@@H](OC(C)=O)[C@@H]1OC(C)=O.CCP(CC)CC.[Au+] [Auranofin, reference compound]
EC50 [1]: < 2 µM
EC50 (lung cancer cells (A549); 96 h exposure): 12 ± 2 µM
EC50 [2]: < 0.1 µM
EC50 (Lymphoma cells (MT4)): < 2 µM
EC50 ([3]; 96 h exposure): < 0.1 µM

Cc1ccc(C(C)C)cc1.F[B-](F)(F)F.[Cl-].[Ru+2].c1ccc(Cn2cc(-c3ccccn3)nn2)cc1 [Complex C1, [Chlorido(2-(1-benzyl-(3-κN)-1,2,3-triazol-4-yl)-(2′-κN)-pyridine)(η^6-p-cymene)ruthenium(II)] tetrafluoroborate]
EC50 [1]: > 500 µM
Selectivity (%) (pH 7.4): 100% and >99%
Time with no detectable changes in the 1H NMR spectra (stability) ([4]; 10% DMSO-d6 in phosphate-buffered D2O (pH 7.4), 37 °C): over 72 h
EC50 (lung cancer cells (A549); 96 h exposure): > 500 µM
EC50 [2]: > 500 µM
EC50 (Lymphoma cells (MT4)): 37 ± 5 µM
EC50 ([3]; 96 h exposure): 113 ± 17 µM
EC50 BHK21 ([3]; 96 h exposure): low cytotoxicities

Cc1ccc(C(C)C)cc1.[Cl-].[Ru+2].c1ccc(Cn2cc(-c3ccccn3)nn2)cc1.c1ccc([B-](c2ccccc2)(c2ccccc2)c2ccccc2)cc1 [Complex C2, [Chlorido(2-(1-benzyl-(3-κN)-1,2,3-triazol-4-yl)-(2′-κN)-pyridine)(η^6-p-cymene)ruthenium(II)] tetraphenylborate]
EC50 [1]: 15 ± 1.7 µM
EC50 [5]: 9 to 16 µM and ≤ 16 µM
EC50 (lung cancer cells (A549); 96 h exposure): 14 ± 4 µM
Solubility in aqueous model system [6]: poorly soluble
EC50 [2]: 11 ± 1.5 µM
EC50 (Lymphoma cells (MT4)): 9 ± 1 µM
EC50 ([3]; 96 h exposure): 151 ± 0.6 µM
EC50 BHK21 ([3]; 96 h exposure): low cytotoxicities

Cc1ccc(C(C)C)cc1.F[B-](F)(F)F.[Cl-].[Os+2].c1ccc(Cn2cc(-c3ccccn3)nn2)cc1 [Complex C3, [Chlorido(2-(1-benzyl-(3-κN)-1,2,3-triazol-4-yl)-(2′-κN)-pyridine)(η^6-p-cymene)osmium(II)] tetrafluoroborate]
EC50 [1]: > 500 µM
Conversion (%) [9]: 0.1 ± 0.03%
Conversion (%) [10]: 3 ± 1%
Conversion (%) [11]: 1 ± 0.3%
Selectivity (%) [12]: 100%
Selectivity (%) [13]: >99%
Selectivity (%) [14]: 100%
EC50 (lung cancer cells (A549); 96 h exposure): > 500 µM
EC50 [2]: > 500 µM
EC50 (Lymphoma cells (MT4)): 133 ± 12 µM
EC50 ([3]; 96 h exposure): > 500 µM

Cc1c(C)c(C)[c-](C)c1C.F[B-](F)(F)F.[Cl-].[Rh+3].c1ccc(Cn2cc(-c3ccccn3)nn2)cc1 [Complex C4, [Chlorido(2-(1-benzyl-(3-κN)-1,2,3-triazol-4-yl)-(2′-κN)-pyridine)(η^6-pentamethylcypentadiene)rhodium(III)] tetrafluoroborate]
EC50 [1]: ≥ 300 µM
EC50 (lung cancer cells (A549); 96 h exposure): > 500 µM
EC50 [2]: > 500 µM
EC50 (Lymphoma cells (MT4)): 60 ± 8 µM
EC50 ([3]; 96 h exposure): > 500 µM

Cc1c(C)c(C)[c-](C)c1C.F[B-](F)(F)F.[Cl-].[Ir+3].c1ccc(Cn2cc(-c3ccccn3)nn2)cc1 [Complex C5, [Chlorido(2-(1-benzyl-(3-κN)-1,2,3-triazol-4-yl)-(2′-κN)-pyridine)(η^6-pentamethylcypentadiene)iridium(III)] tetrafluoroborate]
EC50 [1]: > 500 µM
Conversion (%) [9]: 0.1 ± 0.02%
TON [9]: ≤0.1
Conversion (%) [10]: 20 ± 3%
TON [10]: 20
Conversion (%) [11]: 14 ± 2%
TON [11]: 14
Selectivity (%) [12]: 100%
Selectivity (%) [13]: >99%
Selectivity (%) [14]: 100%
Conversion of pyruvate to lactate (summary, base condition not specified): < 14%
Time with no detectable changes in the 1H NMR spectra (stability) ([4]; pH 7.4): over 72 h
EC50 (lung cancer cells (A549); 96 h exposure): > 500 µM
EC50 [2]: > 500 µM
EC50 (Lymphoma cells (MT4)): 67 ± 6 µM
EC50 ([3]; 96 h exposure): 55 ± 1 µM
EC50 BHK21 ([3]; 96 h exposure): low cytotoxicities

Cc1ccc(C(C)C)cc1.F[B-](F)(F)F.[Cl-].[Ru+2].c1ccc(Cn2cc(-c3ccccn3)nn2)nc1 [Complex C6, [Chlorido(2-((4-(pyridine-2-yl)-(3-κN)-1,2,3-trizol-1-yl)methyl)-(2′-κN)-pyridine)(η^6-p-cymene)ruthenium(II)] tetrafluoroborate]
EC50 [1]: 388 ± 70.9 µM
EC50 against the cancer cells [5]: completely inactive against most cancer cells
EC50 A549 (lung cancer cells (A549); 96 h exposure): N.R.
EC50 [2]: > 500 µM
EC50 (Lymphoma cells (MT4)): 158 ± 44.2 µM
EC50 BHK21 ([3]; 96 h exposure): N.R.

Cc1ccc(C(C)C)cc1.[Cl-].[Ru+2].c1ccc(Cn2cc(-c3ccccn3)nn2)nc1.c1ccc([B-](c2ccccc2)(c2ccccc2)c2ccccc2)cc1 [Complex C7, [Chlorido(2-((4-(pyridine-2-yl)-(3-κN)-1,2,3-trizol-1-yl)methyl)-(2′-κN)-pyridine)(η^6-p-cymene)ruthenium(II)] tetraphenylborate]
EC50 [1]: 26 ± 0.8 µM
EC50 (lung cancer cells (A549); 96 h exposure): 53 ± 6 µM
Solubility in aqueous model system [6]: poorly soluble
EC50 [2]: 17 ± 4.8 µM
EC50 (Lymphoma cells (MT4)): 20 ± 4.8 µM
EC50 ([3]; 96 h exposure): 67 ± 7.3 µM

Cc1ccc(C(C)C)cc1.F[B-](F)(F)F.[Cl-].[Os+2].c1ccc(Cn2cc(-c3ccccn3)nn2)nc1 [Complex C8, [Chlorido(2-((4-(pyridine-2-yl)-(3-κN)-1,2,3-trizol-1-yl)methyl)-(2′-κN)-pyridine)(η^6-p-cymene)osmium(II)] tetrafluoroborate]
EC50 Hela [1]: N.R.
EC50 / activity against all the tested cell lines [7]: not active
EC50 (lung cancer cells (A549); 96 h exposure): > 500 µM
EC50 [2]: > 500 µM
EC50 MT4 (Lymphoma cells (MT4)): N.R.
EC50 ([3]; 96 h exposure): > 500 µM

Cc1ccc(C(C)C)cc1.F[B-](F)(F)F.[Cl-].[Os+2].c1ccc(Cn2cc(-c3ccccn3)nn2)nc1 [Complex C9, [Chlorido(2-((4-(pyridine-2-yl)-(3-κN)-1,2,3-trizol-1-yl)methyl)-(2′-κN)-pyridine)(η^6-p-cymene)osmium(II)] tetrafluoroborate]
EC50 Hela [1]: N.R.
EC50 / activity against all the tested cell lines [7]: not active
EC50 (lung cancer cells (A549); 96 h exposure): > 500 µM
EC50 [2]: > 400 µM
EC50 MT4 (Lymphoma cells (MT4)): N.R.
EC50 BHK21 ([3]; 96 h exposure): N.R.

Cc1c(C)c(C)[c-](C)c1C.F[B-](F)(F)F.[Cl-].[Rh+3].c1ccc(Cn2cc(-c3ccccn3)nn2)nc1 [Complex C10, [Chlorido(2-((4-(pyridine-2-yl)-(3-κN)-1,2,3-trizol-1-yl)methyl)-(2′-κN)-pyridine)(η^6-pentamethylcypentadiene)rhodium(III)] tetrafluoroborate]
EC50 Hela [1]: N.R.
EC50 A549 (lung cancer cells (A549); 96 h exposure): N.R.
EC50 [2]: > 500 µM
EC50 (Lymphoma cells (MT4)): > 500 µM
EC50 BHK21 ([3]; 96 h exposure): N.R.

Cc1c(C)c(C)[c-](C)c1C.F[B-](F)(F)F.[Cl-].[Ir+3].c1ccc(Cn2cc(-c3ccccn3)nn2)nc1 [Complex C11, [Chlorido(2-((4-(pyridine-2-yl)-(3-κN)-1,2,3-trizol-1-yl)methyl)-(2′-κN)-pyridine)(η^6-pentamethylcypentadiene)iridium(III)] tetrafluoroborate]
EC50 [1]: 2.5 ± 1 µM
Conversion (%) [11]: 70 ± 5%
EC50 [5]: < 5 µM
Time with no detectable changes in the 1H NMR spectra (stability) ([4]; pH 7.4): over 72 h
EC50 (lung cancer cells (A549); 96 h exposure): > 500 µM
EC50 [2]: > 500 µM
EC50 (Lymphoma cells (MT4)): 111 ± 7 µM
EC50 BHK21 ([3]; 96 h exposure): non-toxic and completely inactive and N.R.

c1ccc(Cn2cc(-c3ccccn3)nn2)cc1 [Complex L1, 2-(1-Benzyl-1H-1,2,3-triazol-4-yl)pyridine]
EC50 ([1]; Homo sapiens, HeLa): 168 ± 31 µM
EC50 (lung cancer cells (A549); [15]): > 1300 µM
SI (selectivity index) [8]: ≤1
EC50 ([2]; Homo sapiens, HEK293): > 1300 µM
EC50 (Lymphoma cells (MT4)): > 1300 µM
EC50 [3, 16]: > 1300 µM

c1ccc(Cn2cc(-c3ccccn3)nn2)nc1 [Complex L2, 2-((4-(Pyridin-2-yl)-1H-1,2,3-triazol-1-yl)methyl)pyridine]
EC50 ([1]; Homo sapiens, HeLa): 1070 ± 134 µM
EC50 (lung cancer cells (A549); [15]): > 1300 µM
SI (selectivity index) [8]: ≤1
EC50 ([2]; Homo sapiens, HEK293): > 1300 µM
EC50 MT4 (Lymphoma cells (MT4)): N.R.
EC50 [3, 16]: > 1300 µM
